Earlier results as cited in publication PMC10376326, “Novel Acylselenourea Derivatives: Dual Molecules with Anticancer and Radical Scavenging Activity” (Antioxidants, 2023).

Design: method as in PMID 36671001
Conditions: selenoester analogs, 0.03 mg/mL, 90 min; cited from earlier work

Row | SMILES | DPPH Inhibitory% [%]
1 | C=CC[Se]C(=O)c1ccco1 [C00001 2-furyl] | 4.6 ± 7.5
2 | C=CC[Se]C(=O)C=Cc1ccccc1 [C00001 2-phenylvinyl] | 3.6 ± 5.3
3 | C=CC[Se]C(=O)c1cccs1 [C00001 2-thiophenyl] | 7.8 ± 10.4
4 | C=CC[Se]C(=O)c1cccnc1 [C00001 3-pyridyl] | 6.3 ± 2.9
5 | C=CC[Se]C(=O)c1ccc2c(c1)OCO2 [C00001 5-benzo[d][1, 3]dioxyl] | 0.0 ± 2.3
6 | C=CC[Se]C(=O)c1ccccc1 [C00001 phenyl] | 9.0 ± 1.2
7 | C#CC[Se]C(=O)c1ccco1 [C00003 2-furyl] | 5.4 ± 2.3
8 | C#CC[Se]C(=O)C=Cc1ccccc1 [C00003 2-phenylvinyl] | 2.4 ± 2.0
